Test results from PMC4450297, “Screening Active Compounds from Garcinia Species Native to China Reveals Novel Compounds Targeting the STAT/JAK Signaling Pathway” (BioMed Research International, 2015).

Experiments:
Assay in all cases: Cell panel screen (CellTiter-Glo)
Type in all cases: cell-based, human
A498 = A498 (listed under Lung), 20 micromolar, 72 hrs
In short: (§1)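 Percent growth inhibition at one concentration (20 μM final) after 72 h treatment, derived from cellular ATP luminescence and normalised between DMSO-treated cells and wells lacking cells.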

A704 = A704 (Kidney), 20 micromolar, 72 hrs
In short: as §1

BT-474 = BT-474 (Breast), 20 micromolar, 72 hrs
In short: as §1

BT-549 = BT-549 (Breast), 20 micromolar, 72 hrs
In short: as §1

Bel-7402 = Bel-7402 (Liver), 20 micromolar, 72 hrs
In short: as §1

C3A = C3A (Liver), 20 micromolar, 72 hrs
In short: as §1

C8166 = C8166 (Leukemia), 20 micromolar, 72 hrs
In short: as §1

CCF-STTG1 = CCF-STTG1 (Brain), 20 micromolar, 72 hrs
In short: as §1

CW-2 = CW-2 (Colon), 20 micromolar, 72 hrs
In short: as §1

ChaGo-K-1 = ChaGo-K-1 (Lung), 20 micromolar, 72 hrs
In short: as §1

Colo 205 = details: Colo 205, 20 micromolar, 72 hrs
In short: as §1

HCC1395 = HCC1395 (Breast), 20 micromolar, 72 hrs
In short: as §1

HCC1569 = HCC1569 (Breast), 20 micromolar, 72 hrs
In short: as §1

HCC1599 = HCC1599 (Breast), 20 micromolar, 72 hrs
In short: as §1

HCC1937 = HCC1937 (Breast), 20 micromolar, 72 hrs
In short: as §1

HEC-1-A = HEC-1-A (Uterus), 20 micromolar, 72 hrs
In short: as §1

HGC-27 = HGC-27 (Stomach), 20 micromolar, 72 hrs
In short: as §1

HPAF-II = HPAF-II (Pancreas), 20 micromolar, 72 hrs
In short: as §1

HT-1197 = HT-1197 (Urinary bladder), 20 micromolar, 72 hrs
In short: as §1

J82 = J82 (Urinary bladder), 20 micromolar, 72 hrs
In short: as §1

M059J = M059J (Brain), 20 micromolar, 72 hrs
In short: as §1

MSTO-211-H = MSTO-211-H (Lung), 20 micromolar, 72 hrs
In short: as §1

NCI-H1623 = NCI-H1623 (Lung), 20 micromolar, 72 hrs
In short: as §1

NCI-H1694 = NCI-H1694 (Lung), 20 micromolar, 72 hrs
In short: as §1

NCI-H1770 = NCI-H1770 (Lung), 20 micromolar, 72 hrs
In short: as §1

NCI-H2347 = NCI-H2347 (Lung), 20 micromolar, 72 hrs
In short: as §1

NCI-H2405 = NCI-H2405 (Lung), 20 micromolar, 72 hrs
In short: as §1

NCI-H28 = NCI-H28 (Lung), 20 micromolar, 72 hrs
In short: as §1

NCI-H524 = NCI-H524 (Lung), 20 micromolar, 72 hrs
In short: as §1

Panc 03.27 = Panc 03.27 (Pancreas), 20 micromolar, 72 hrs
In short: as §1

RL95 = RL95 (Uterus), 20 micromolar, 72 hrs
In short: as §1

SW13 = SW13 (Adrenal gland), 20 micromolar, 72 hrs
In short: as §1

T47D = T47D (Breast), 20 micromolar, 72 hrs
In short: as §1

T98G = T98G (Brain), 20 micromolar, 72 hrs
In short: as §1

TCCSUP = TCCSUP (Urinary bladder), 20 micromolar, 72 hrs
In short: as §1

ZR-75-30 = ZR-75-30 (Breast), 20 micromolar, 72 hrs
In short: as §1

COc1c(CC=C(C)C)cc2c(=O)c3c(O)cc(O)cc3oc2c1O [gl-16]
Percent Inhibition (A498): 34%
Percent Inhibition (A704): 9%
Percent Inhibition (BT-474): 16%
Percent Inhibition (BT-549): 27%
Percent Inhibition (Bel-7402): 17%
Percent Inhibition (C3A): 45%
Percent Inhibition (C8166): 77%
Percent Inhibition (CCF-STTG1): 25%
Percent Inhibition (CW-2): 55%
Percent Inhibition (ChaGo-K-1): 57%
Percent Inhibition (Colo 205): 57%
Percent Inhibition (HCC1395): 69%
Percent Inhibition (HCC1569): 50%
Percent Inhibition (HCC1599): 67%
Percent Inhibition (HCC1937): 50%
Percent Inhibition (HEC-1-A): 46%
Percent Inhibition (HGC-27): 58%
Percent Inhibition (HPAF-II): 26%
Percent Inhibition (HT-1197): 37%
Percent Inhibition (J82): 50%
Percent Inhibition (M059J): 33%
Percent Inhibition (MSTO-211-H): 61%
Percent Inhibition (NCI-H1623): 18%
Percent Inhibition (NCI-H1694): 55%
Percent Inhibition (NCI-H1770): 21%
Percent Inhibition (NCI-H2347): 42%
Percent Inhibition (NCI-H2405): 12%
Percent Inhibition (NCI-H28): 41%
Percent Inhibition (NCI-H524): 56%
Percent Inhibition (Panc 03.27): 47%
Percent Inhibition (RL95): 45%
Percent Inhibition (SW13): 41%
Percent Inhibition (T47D): 36%
Percent Inhibition (T98G): 28%
Percent Inhibition (TCCSUP): 63%
Percent Inhibition (ZR-75-30): 93%

CCOC(=O)C1OC(Oc2cc(O)c3c(c2)OC(c2ccc(O)c(O)c2)CC3=O)C(O)C(O)C1O (stereo not drawn) [gly-3]
Percent Inhibition (A498): -4%
Percent Inhibition (A704): -17%
Percent Inhibition (BT-474): -24%
Percent Inhibition (BT-549): -14%
Percent Inhibition (Bel-7402): -5%
Percent Inhibition (C3A): -4%
Percent Inhibition (C8166): -1%
Percent Inhibition (CCF-STTG1): -4%
Percent Inhibition (CW-2): 4%
Percent Inhibition (ChaGo-K-1): -13%
Percent Inhibition (Colo 205): -6%
Percent Inhibition (HCC1395): 9%
Percent Inhibition (HCC1569): -8%
Percent Inhibition (HCC1599): -18%
Percent Inhibition (HCC1937): 3%
Percent Inhibition (HEC-1-A): -19%
Percent Inhibition (HGC-27): -11%
Percent Inhibition (HPAF-II): -7%
Percent Inhibition (HT-1197): 11%
Percent Inhibition (J82): -7%
Percent Inhibition (M059J): 1%
Percent Inhibition (MSTO-211-H): -3%
Percent Inhibition (NCI-H1623): 8%
Percent Inhibition (NCI-H1694): 1%
Percent Inhibition (NCI-H1770): -10%
Percent Inhibition (NCI-H2347): 4%
Percent Inhibition (NCI-H2405): -3%
Percent Inhibition (NCI-H28): -18%
Percent Inhibition (NCI-H524): -25%
Percent Inhibition (Panc 03.27): 2%
Percent Inhibition (RL95): 6%
Percent Inhibition (SW13): -5%
Percent Inhibition (T47D): -4%
Percent Inhibition (T98G): -3%
Percent Inhibition (TCCSUP): -1%
Percent Inhibition (ZR-75-30): 13%

COc1ccc2c(=O)c3c(O)cc(O)cc3oc2c1OC [Go-14]
Percent Inhibition (A498): -2%
Percent Inhibition (A704): -13%
Percent Inhibition (BT-474): -23%
Percent Inhibition (BT-549): -16%
Percent Inhibition (Bel-7402): -8%
Percent Inhibition (C3A): -7%
Percent Inhibition (C8166): 2%
Percent Inhibition (CCF-STTG1): -1%
Percent Inhibition (CW-2): 5%
Percent Inhibition (ChaGo-K-1): -16%
Percent Inhibition (Colo 205): 8%
Percent Inhibition (HCC1395): -8%
Percent Inhibition (HCC1569): 2%
Percent Inhibition (HCC1599): 0%
Percent Inhibition (HCC1937): 3%
Percent Inhibition (HEC-1-A): -6%
Percent Inhibition (HGC-27): -2%
Percent Inhibition (HPAF-II): 0%
Percent Inhibition (HT-1197): -3%
Percent Inhibition (J82): -8%
Percent Inhibition (M059J): 0%
Percent Inhibition (MSTO-211-H): 11%
Percent Inhibition (NCI-H1623): -10%
Percent Inhibition (NCI-H1694): -3%
Percent Inhibition (NCI-H1770): -4%
Percent Inhibition (NCI-H2347): -2%
Percent Inhibition (NCI-H2405): -10%
Percent Inhibition (NCI-H28): -3%
Percent Inhibition (NCI-H524): -5%
Percent Inhibition (Panc 03.27): 4%
Percent Inhibition (RL95): -5%
Percent Inhibition (SW13): -12%
Percent Inhibition (T47D): -3%
Percent Inhibition (T98G): 8%
Percent Inhibition (TCCSUP): 6%
Percent Inhibition (ZR-75-30): -20%

CC(C)=CCC[C@@]1(C)C=Cc2c(O)c3c(c(CC=C(C)C)c2O1)O[C@]12C(=C[C@@H]4C[C@H]1C(C)(C)O[C@@]2(C/C=C(/C)C(=O)O)C4=O)C3=O [GB11]
Percent Inhibition (A498): 98%
Percent Inhibition (A704): 98%
Percent Inhibition (BT-474): 98%
Percent Inhibition (BT-549): 99%
Percent Inhibition (Bel-7402): 98%
Percent Inhibition (C3A): 98%
Percent Inhibition (C8166): 99%
Percent Inhibition (CCF-STTG1): 98%
Percent Inhibition (CW-2): 98%
Percent Inhibition (ChaGo-K-1): 98%
Percent Inhibition (Colo 205): 98%
Percent Inhibition (HCC1395): 98%
Percent Inhibition (HCC1569): 99%
Percent Inhibition (HCC1599): 99%
Percent Inhibition (HCC1937): 98%
Percent Inhibition (HEC-1-A): 99%
Percent Inhibition (HGC-27): 98%
Percent Inhibition (HPAF-II): 98%
Percent Inhibition (HT-1197): 98%
Percent Inhibition (J82): 98%
Percent Inhibition (M059J): 98%
Percent Inhibition (MSTO-211-H): 98%
Percent Inhibition (NCI-H1623): 98%
Percent Inhibition (NCI-H1694): 99%
Percent Inhibition (NCI-H1770): 98%
Percent Inhibition (NCI-H2347): 98%
Percent Inhibition (NCI-H2405): 98%
Percent Inhibition (NCI-H28): 99%
Percent Inhibition (NCI-H524): 97%
Percent Inhibition (Panc 03.27): 99%
Percent Inhibition (RL95): 99%
Percent Inhibition (SW13): 98%
Percent Inhibition (T47D): 99%
Percent Inhibition (T98G): 99%
Percent Inhibition (TCCSUP): 99%
Percent Inhibition (ZR-75-30): 99%

O=C1CC(c2ccc(O)c(O)c2)Oc2cc(OC3OC(C(=O)O)C(O)C(O)C3O)cc(O)c21 (stereo not drawn) [gly-2]
Percent Inhibition (A498): -7%
Percent Inhibition (A704): -14%
Percent Inhibition (BT-474): -18%
Percent Inhibition (BT-549): -14%
Percent Inhibition (Bel-7402): -14%
Percent Inhibition (C3A): -5%
Percent Inhibition (C8166): -12%
Percent Inhibition (CCF-STTG1): 1%
Percent Inhibition (CW-2): -2%
Percent Inhibition (ChaGo-K-1): -33%
Percent Inhibition (Colo 205): -6%
Percent Inhibition (HCC1395): 8%
Percent Inhibition (HCC1569): -6%
Percent Inhibition (HCC1599): -8%
Percent Inhibition (HCC1937): -2%
Percent Inhibition (HEC-1-A): -19%
Percent Inhibition (HGC-27): 0%
Percent Inhibition (HPAF-II): -1%
Percent Inhibition (HT-1197): -8%
Percent Inhibition (J82): -6%
Percent Inhibition (M059J): -1%
Percent Inhibition (MSTO-211-H): 7%
Percent Inhibition (NCI-H1623): 6%
Percent Inhibition (NCI-H1694): -10%
Percent Inhibition (NCI-H1770): -4%
Percent Inhibition (NCI-H2347): -2%
Percent Inhibition (NCI-H2405): -2%
Percent Inhibition (NCI-H28): -21%
Percent Inhibition (NCI-H524): -15%
Percent Inhibition (Panc 03.27): 2%
Percent Inhibition (RL95): 2%
Percent Inhibition (SW13): -14%
Percent Inhibition (T47D): -2%
Percent Inhibition (T98G): -3%
Percent Inhibition (TCCSUP): -4%
Percent Inhibition (ZR-75-30): 15%
